Data set [1] can be described thus: Stability of mixture with milled lactose hydrate in capsules, sealed plastic bottles, 25° C. and 60% RH, related substance (HPLC). The class given is physicochemical. Conditions: dimer of compound A (RRT about 1.34). The protocol: (§1) The amounts of generated related substances were measured by a high performance liquid chromatographic method (an HPLC method). The amount of a related substance is calculated by measuring the peak area of each related substance contained in a pharmaceutical composition by the HPLC method, and dividing the peak area of a dimer of compound A (a related substance detected at a relative retention time of about 1.34) by the total peak area of all related substances, including compound A or a pharmaceutically acceptable salt thereof and the dimer of compound A. • Measurement wavelength: 210 nm • Column: YMC-Triart C18 (4.6 mm×150 mm, 3 μm) • Column temperature: a constant temperature around 40° C. • Mobile phase: A mixed solution of 45 mM perchloric acid aqueous solution and acetonitrile • Flow rate: about 1.2 mL/min. • Injection amount: 10 μg (corresponding to compound A) (Measurement of Water Activity)
After 1.171 mg of compound A monomethanesulfonate and 98.829 mg of milled lactose hydrate (Pharmatose 200 M, DFE Pharma) were mixed, the obtained mixture was filled into hypromellose capsules. […] After the storage, the amount of a related substance (the amount of a dimer of compound A at a relative retention time of about 1.34) was measured under the same conditions as those of Experimental Example 1. […]

A short description of data set [2]: Stability of mixtures with pharmaceutical additives, sealed bottles in aluminum bags, 25° C. or 40° C., related substance (HPLC). The class given is physicochemical. Conditions: dimer of compound A (RRT about 1.34), N = 2, values less than 0.05% (quantitative limit) are reference values. The protocol:
as §1
The mixtures obtained in Examples 4 to 11 and Comparative Examples 1 to 2, as well as compound A monomethanesulfonate, were put into plastic bottles. […] After the storage, the amount of a related substance (the amount of a dimer of compound A at a relative retention time of about 1.34) was measured under the same conditions as those of Experimental Example 1. […]

Data set [3] in a line: Water activity value of pharmaceutical additives, humidity conditions versus dry state. The class given is physicochemical. Conditions: N = 3; for Water activity value, Opened / Water activity value, Sealed: additive alone; for Water activity value, Opened: 25° C. and 60% RH (opened) for 3 days; for Water activity value, Sealed: in bottles at 25° C. for 3 days in the presence of a desiccant; for Water activity value, Difference: opened minus sealed. The protocol: A water activity meter (AQUA LAB Series 4TE (AQUA LAB)) was used to measure the water activity value of each pharmaceutical composition (including a capsule shell) at 25° C.
Pharmaceutical additives (5000 mg each) used in Examples 4 to 11 and Comparative Examples 1 to 2 were allowed to stand in bottles (30 mL) at 25° C. for 3 days in the presence of a desiccant (2 g), and the water activity value was measured under the same conditions as those of Experimental Example 1. Further, the same samples were allowed to stand in bottles under storage conditions of 25° C. and 60% RH (opened) for 3 days, and the water activity value was measured under the same conditions as those of Experimental Example 1
The difference between the water activity value after the storage in the opened state and the water activity value after the storage in the sealed state is summarized in Table 7.

Data set [4] relates to epidermal growth factor receptor (EGFR) mutant kinase. Conditions: disclosed in Patent literature 1 (WO 2013/108754); cited from earlier work.

As to `C=CC(=O)N1CC[C@@H](Oc2nc(Nc3ccc(N4CCC(N5CCN(C)CC5)CC4)cc3)c(C(N)=O)nc2CC)C1.CS(=O)(=O)O` [Compound A monomethanesulfonate (alone), 5-{[(3R)-1-acryloylpyrrolidin-3-yl]oxy}-6-ethyl-3-({4-[4-(4-methylpiperazin-1-yl)piperidin-1-yl]phenyl}amino)-pyrazine-2-carboxamide monomethanesulfonate], the “Amount of related substance, 25° C. · 60% RH After 1 month” value in data set [1] is on record as 0.44%. The “Amount of related substance, 25° C., After 1 month” value in data set [2] (25° C.) amounted to 0.03%. The “Amount of related substance, 40° C., After 1 month” value in data set [2] (40° C.) was found to be 0.03%.
With `O.OC[C@H]1O[C@@H](O[C@H]2[C@H](O)[C@@H](O)C(O)O[C@@H]2CO)[C@H](O)[C@@H](O)[C@H]1O` (stereo partly shown) [Lactose hydrate], in data set [3], the “Water activity value, Opened” value was 0.46; the “Water activity value, Sealed” value is listed as 0.30; the “Water activity value, Difference” value is 0.16.
For `OC[C@@H](O)[C@@H](O)[C@H](O)[C@H](O)CO` [Mannitol], in that order: 0.45, 0.35 and 0.10.
As for `OC[C@H]1O[C@@](CO)(O[C@H]2O[C@H](CO)[C@@H](O)[C@H](O)[C@H]2O)[C@@H](O)[C@@H]1O` [Sucrose], in data set [3], the “Water activity value, Opened” value came out at 0.43; the “Water activity value, Sealed” value is 0.38; the “Water activity value, Difference” value was determined as 0.05.
With `OC[C@H]1O[C@H](O[C@H]2O[C@H](CO)[C@@H](O)[C@H](O)[C@H]2O)[C@H](O)[C@@H](O)[C@@H]1O` [Trehalose], in data set [3], the “Water activity value, Opened” value came out at 0.40; the “Water activity value, Sealed” value came out at 0.32; the “Water activity value, Difference” value is given as 0.08.
Take `C=CC(=O)N1CC[C@@H](Oc2nc(Nc3ccc(N4CCC(N5CCN(C)CC5)CC4)cc3)c(C(N)=O)nc2CC)C1` [compound A, 5-{[(3R)-1-Acryloylpyrrolidin-3-yl]oxy}-6-ethyl-3-({4-[4-(4-methylpiperazin-1-yl)piperidin-1-yl]phenyl}amino)-pyrazine-2-carboxamide]: the “inhibitory action on an epidermal growth factor receptor (EGFR) mutant kinase” value in data set [4] was “confirmed”.

Source of the values: patent publication US10188737B2, “Stabilized pharmaceutical composition” (ASTELLAS PHARMA INC., priority 2015, dated 2019).
